pIC50: −log10 of the molar value.
Assays:
[1] = biological target: T1, Epidermal growth factor receptor (Homo sapiens, UniProt P00533); assay: Inhibition of phosphorylation of phospholipase C gamma1 by Epidermal growth factor receptor, from human A431 carcinoma cell vesicles
[2] = biological target: T1, Epidermal growth factor receptor; assay: Tested for ability to inhibit autophosphorylation of the Epidermal growth factor receptor in human epidermoid carcinoma cells
[3] = biological target: T1, Epidermal growth factor receptor; assay: Tested for inhibition of PLC gamma-derived substrate in Epidermal growth factor receptor stimulated A431 cells
[4] = biological target: T1, Epidermal growth factor receptor; assay: Tested for inhibition of autophosphorylation in Epidermal growth factor receptor stimulated A431 cells

T1 sequence (P00533 whole entry): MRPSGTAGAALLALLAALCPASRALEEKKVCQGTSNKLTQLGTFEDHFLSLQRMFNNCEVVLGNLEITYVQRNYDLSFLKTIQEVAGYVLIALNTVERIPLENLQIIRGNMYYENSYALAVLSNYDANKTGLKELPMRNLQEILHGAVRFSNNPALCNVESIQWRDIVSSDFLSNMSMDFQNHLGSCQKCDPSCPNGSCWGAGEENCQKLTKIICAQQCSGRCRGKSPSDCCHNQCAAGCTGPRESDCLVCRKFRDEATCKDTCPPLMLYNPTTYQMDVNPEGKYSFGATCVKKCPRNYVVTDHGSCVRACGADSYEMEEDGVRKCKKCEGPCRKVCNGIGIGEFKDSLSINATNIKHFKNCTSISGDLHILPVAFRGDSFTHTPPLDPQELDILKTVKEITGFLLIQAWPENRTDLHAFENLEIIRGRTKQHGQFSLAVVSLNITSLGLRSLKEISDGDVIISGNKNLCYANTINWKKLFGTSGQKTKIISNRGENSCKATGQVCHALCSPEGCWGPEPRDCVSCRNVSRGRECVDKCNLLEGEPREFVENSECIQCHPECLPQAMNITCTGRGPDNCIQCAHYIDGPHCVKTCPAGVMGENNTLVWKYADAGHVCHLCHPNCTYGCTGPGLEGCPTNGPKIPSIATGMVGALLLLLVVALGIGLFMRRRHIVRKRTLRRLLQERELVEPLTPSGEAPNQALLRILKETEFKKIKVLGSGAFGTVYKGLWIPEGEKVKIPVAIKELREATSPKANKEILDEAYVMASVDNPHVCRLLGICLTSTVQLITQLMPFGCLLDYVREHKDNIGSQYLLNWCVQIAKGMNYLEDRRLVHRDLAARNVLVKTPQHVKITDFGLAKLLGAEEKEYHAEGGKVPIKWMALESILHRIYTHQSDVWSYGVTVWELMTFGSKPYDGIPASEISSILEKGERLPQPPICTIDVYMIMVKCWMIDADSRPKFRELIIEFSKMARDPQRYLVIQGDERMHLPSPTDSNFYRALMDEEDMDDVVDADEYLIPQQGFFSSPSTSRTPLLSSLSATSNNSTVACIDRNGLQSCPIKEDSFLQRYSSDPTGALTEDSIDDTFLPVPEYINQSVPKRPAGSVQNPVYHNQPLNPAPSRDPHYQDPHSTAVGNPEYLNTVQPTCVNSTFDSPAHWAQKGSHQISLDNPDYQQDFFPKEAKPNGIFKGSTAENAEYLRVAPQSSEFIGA

pIC50 [1]	SMILES	also measured
7.77	Cc1cccc(Nc2ncnc3cnc(N)nc23)c1	
9.12	CNc1ncc2ncnc(Nc3cccc(Br)c3)c2n1	pIC50 [2]: 7.52
8.64	Cc1cccc(Nc2ncnc3cnc(NCCN4CCOCC4)nc23)c1	
8.52	Cc1cccc(Nc2ncnc3cnc(NCCc4c[nH]cn4)nc23)c1	
5.59	Clc1ncc2ncnc(Nc3ccccc3)c2n1	
	CNc1ccc2ncnc(Nc3cccc(Br)c3)c2c1	pIC50 [3]: 7.96
8.64	Brc1cccc(Nc2ncnc3cnc(NCCCn4ccnc4)nc23)c1	
8.42	COc1ncc2ncnc(Nc3cccc(Br)c3)c2n1	
6.42	Cc1cccc(Nc2ncnc3cnc(Cl)nc23)c1	
8.40	Cc1cccc(Nc2ncnc3cnc(N(C)C)nc23)c1	
7.89	CNc1ncc2ncnc(Nc3ccccc3)c2n1	
7.09	Clc1ncc2ncnc(Nc3cccc(Br)c3)c2n1	
	CN(C)c1cc2c(Nc3cccc(Br)c3)ncnc2cn1	pIC50 [4]: 7.92; pIC50 [3]: 8.59
8.82	Nc1ncc2ncnc(Nc3cccc(Br)c3)c2n1	
7.46	CN(C)CCNc1ncc2ncnc(Nc3cccc(Br)c3)c2n1	

SMILES	pIC50 [1]	also measured
Brc1cccc(Nc2ncnc3cnc(NCCN4CCOCC4)nc23)c1	9.09	pIC50 [2]: 8.51
Brc1cccc(Nc2ncnc3cnc(NCCc4c[nH]cn4)nc23)c1	9.60	pIC50 [2]: 8.29

From ChEMBL document CHEMBL1130057, “Tyrosine kinase inhibitors. 12. Synthesis and structure-activity relationships for 6-substituted 4-(phenylamino)pyrimido[5,4-d]pyrimidines designed as inhibitors of the epidermal growth factor receptor” (J Med Chem, 1997)
